Measured values taken from patent publication US20090111733A1, “PAR-4 RELATED METHODS AND COMPOSITIONS” (President and Fellows of Harvard College, priority 2006, published 2009).

Columns and labels:
[1] = molecular target: T1, D2i3 (third intracellular loop of the long isoform of human D2DR) (Homo sapiens, UniProt P14416); assay: In vitro binding assay with purified GST-D2i3 and Par-4LZ proteins; conditions: in the presence of Ca2+
T1 construct: A long isoform of D2i3 (amino acid 212-373) was amplified from a human D2DR cDNA clone; made in house; host or cells: E. coli BL21
T1 sequence (P14416 212-241): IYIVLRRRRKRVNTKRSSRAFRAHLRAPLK
Method: (§1) pPC97-D2i3 and pPC86-Par-4LZ plasmids were digested with SalI and NotI and cloned into pGEX4T-2 (Amersham-Pharmacia) using the same restriction sites to make GST-D2i3 and GST-Par-4LZ fusion proteins, respectively. GST-fusion proteins were expressed in BL21 bacteria and purified following manufacturer's instruction. For the in vitro binding assay, 500 nmoles of GST-Par-4LZ fusion protein in PBS was digested with 0.2 NIH units of thrombin (Sigma) for 2 hours at room temperature and the reaction was stopped by adding PMSF (10 μM, Sigma) and incubated for an additional 1 hour at 4° C. The GST portion of the digested protein was removed by glutathione sepharose (Amersham-Pharmacia). The supernatant was equilibrated to final 1× binding buffer (200 mM NaCl, 0.2% Triton X-100, 0.2mg/ml BSA and 50 mM Tris, pH 7.5). Binding reaction was initiated by adding 500 nmoles of GST-D2i3 (50 nM of GST-D2i3^221-241 in the competition assay) to Par-4LZ protein in the 1× binding buffer and incubated for 2-3 hours at 4° C. GST-D2i3 was precipitated using 100 μl of 10% glutathione sepharose in 1× binding buffer. The precipitate was washed 3 times with 1× binding buffer and resuspended in 2× SDS sample loading buffer.

[2] = system: dopamine-mediated cAMP signaling; assay: cAMP accumulation in cultured primary striatal neurons from wild type and Par-4ΔLZ embryos (cAMP EIA); assay type: cell-based, mouse; conditions: for upregulation of cAMP signaling comparable to that with dopamine: Par-4ΔLZ striatal neurons
Method: DIV 11-14 neurons cultured in 24 well-plates were replaced with neurobasal media supplemented with 10 mM HEPES (pH7.4) containing drugs indicated for 50 min at room temperature, cells were lysed in 200 μl of 0.1M HCl solution for 15 min with gentle shaking and spun in the microcentrifuge tubes. cAMP concentration of the supernatant was measured using the cAMP-Enzyme Immunoassay Kit (Assay Designs) following manufacture's instructions. Concentrations of cAMP were normalized using protein concentrations measured by Biorad Protein Assay System (Bio-rad).

[3] = system: CREB S133 phosphorylation
Method: The cells were mechanically dissociated by triturating with a fine polished glass pipette, diluted in Neurobasal media (Invitrogen) supplemented with 10% horse serum and 10 mM HEPES (pH7.2), and plated in a dish coated with poly-D-lysine (Sigma) and laminin (Sigma). Cultured DIV12-13 mouse neurons were lysed for 30 min at 4° C. with gentle shaking in the extraction buffer (50 mM Tris pH8.0, 50 mM NaCl, 1.0% NP-40, 0.5% sodium deoxycholate, 0.1% SDS, 1 mM EDTA, 1 mM EGTA, 1 mM NaF, 20 mM Na4P2O7, 2 mM Na3VO4, 10% glycerol) supplemented with protease inhibitor cocktail (Sigma). Cell lysates were centrifuged for 15 min at 12,000 g at 4° C. and the supernatants were applied to ELISA using the Immunoassay kits for total CREB and […] phospho-CREB (Biosource) following the manufacturer's instruction.

Par-4/D2DR association = assay: Co-immunoprecipitation of Par-4 with D2DR-EGFP in the stable D2DR-EGFP cell line; assay type: cell-based, human
[4] = molecular target: GST-D2i3 (GST fusion of the third intracellular loop of the long isoform of human D2DR, amino acid residues 212-373) (human); assay: in vitro GST pull-down with purified proteins
[5] = system: Par-4 nuclear translocation; assay: Par-4 nuclear translocation in cultured striatal neurons; assay type: cell-based; conditions: activation of glutamate receptors
[6] = molecular target: T2, D2i3 (third intracellular loop of the long isoform of human D2DR) (Homo sapiens, UniProt P14416); assay: In vitro binding assay with purified GST-D2i3 and Par-4LZ proteins; conditions: equimolar amount of GST-D2i3 protein
T2 construct: A long isoform of D2i3 (amino acid 212-373) was amplified from a human D2DR cDNA clone; made in house; host or cells: E. coli BL21
T2 sequence (P14416 212-373): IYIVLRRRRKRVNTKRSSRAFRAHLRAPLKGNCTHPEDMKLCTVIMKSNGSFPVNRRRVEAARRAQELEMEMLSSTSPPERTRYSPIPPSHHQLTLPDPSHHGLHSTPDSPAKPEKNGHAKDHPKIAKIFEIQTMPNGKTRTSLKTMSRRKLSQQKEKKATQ
Method: as §1

Molecule: calmodulin
- interaction of Par-4LZ with D2i3 in the presence of increasing calmodulin levels [1]: effectively interfered

Molecule: NCCc1ccc(O)c(O)c1 [dopamine]
- cAMP levels ([2]; Par-4ΔLZ mutant neurons, 1-10 μM of dopamine): markedly elevated
- dopamine-induced downregulation of CREB S133 phosphorylation ([3]; Par-4ΔLZ neurons): not observed
- CREB S133 phosphorylation ([3]; wild type neurons, dose-dependent): significantly decreased

Molecule: NC[C@H](O)c1ccc(O)c(O)c1 [norepinephrine]
- upregulation of cAMP signaling comparable to that with dopamine [2]: not detected

Molecule: CCN1CCCC1CNC(=O)c1cc(S(N)(=O)=O)ccc1OC (stereo not shown) [sulpiride]
- cAMP response to dopamine ([2]; Par-4ΔLZ neurons, co-treated with dopamine): no such effect
- cAMP response to dopamine ([2]; wild type neurons, co-treated with 1-10 μM dopamine): enhanced

Molecule: NCCc1c[nH]c2ccc(O)cc12 [serotonin]
- upregulation of cAMP signaling comparable to that with dopamine [2]: not detected

Molecule: C/C=C(/C)C(=O)O[C@H]1C(C)=C2[C@H]([C@@H]1OC(=O)CCCCCCC)[C@@](C)(OC(C)=O)C[C@H](OC(=O)CCC)[C@@]1(O)[C@H]2OC(=O)[C@@]1(C)O [thapsigargin]
- co-immunoprecipitation of Par-4 with D2DR-EGFP (Par-4/D2DR association): significantly reduced

Molecule: C[C@H](CCC(=O)O)C[C@H](C)C[C@H](C)C(=O)/C=C(\O)[C@H](C)C[C@H](C)C/C=C/[C@@H](C)[C@@H](O)[C@@H](C)[C@@H](O)C[C@@H]1CC[C@@](C)([C@H]2CC[C@@](C)([C@@H](C)O)O2)O1 [ionomycin]
- co-immunoprecipitation of Par-4 with D2DR-EGFP (Par-4/D2DR association): significantly reduced

Molecule: Par-4LZ protein (purified; human Par-4 amino acid residues 245-342, leucine zipper domain)
- percent of total protein pulled down [4]: 50%

Molecule: N[C@@H](CCC(=O)O)C(=O)O [glutamate]
- nuclear translocation of Par-4 [5]: induce nuclear translocation

B1: Par-4LZ: human Par-4 amino acid residues 245-342 that harbor the leucine zipper domain (protein)
chain: DRSGFPRYNRDANVSGTLVSSSTLEKKIEDLEKEVVRERQENLRLVRLMQDKEEMIGKLKEEIDLLNRDLDDIEDENEQLKQENKTLLKVVGQLTR
- fraction of total Par-4LZ protein pulled down by GST-D2i3 [6]: Approximately 50%
